Where two headings read alike, the source gives them in different places.

Broadly, the EC50 is the concentration that produces a half-maximal response. What is called Emax is the greatest response seen or fitted, relative to the assay's reference.

The test deals with T1, human mAChR M1 (Homo sapiens, UniProt P11229).
T1 sequence (P11229 1-460): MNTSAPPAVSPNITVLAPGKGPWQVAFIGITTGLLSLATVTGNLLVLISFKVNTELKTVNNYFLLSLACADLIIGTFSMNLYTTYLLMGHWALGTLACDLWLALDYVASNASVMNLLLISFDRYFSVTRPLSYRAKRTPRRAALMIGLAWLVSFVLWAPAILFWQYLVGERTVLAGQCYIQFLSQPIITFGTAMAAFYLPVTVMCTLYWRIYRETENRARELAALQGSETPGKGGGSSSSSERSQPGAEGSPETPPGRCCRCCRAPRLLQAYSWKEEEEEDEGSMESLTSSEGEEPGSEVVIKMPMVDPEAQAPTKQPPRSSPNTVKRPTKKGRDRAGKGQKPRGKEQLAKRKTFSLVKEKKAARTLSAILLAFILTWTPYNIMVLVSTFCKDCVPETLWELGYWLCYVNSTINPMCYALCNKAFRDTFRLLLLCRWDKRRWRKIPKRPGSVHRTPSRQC
The test is described as follows: mAChR M1 cell-based functional assay: calcium mobilization, positive allosteric modulator mode (increase in EC20 acetylcholine response). To be noted: for Emax: read-out: Human M1 Emax (%). The method, boiled down:
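PAM potency reflects the concentration-dependent increase in calcium response to an EC20 acetylcholine challenge, given 144 s into a 300 s read after compound addition at 4 s (EC80 follows at 230 s). Cells were hM1-expressing CHO-K1, loaded 50 min with Fluo-4 AM. Curves used 11 points at 1:3 dilutions and four-parameter logistic fitting.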
A general note: A change in cytosolic calcium serves as a functional read-out for many receptors and channels.

Setting [1] is: Table 1, mAChR M1 cell-based functional assay, PAM mode, species not given, read-out: EC50.
Where [2] appears, read: Table 2, human M1, read-out: Human M1 EC50.

Regarding `Cc1ccc(Cc2cc(C(=O)NC3CCOCC3)nc3ccsc23)cn1` [Compound 50, 7-[(6-methyl-3-pyridyl)methyl]-N-tetrahydropyran-4-yl-thieno[3,2-b]pyridine-5-carboxamide], under setting [1], the EC50 came out at 4960 nM. Regarding `Cc1cc2nc(C(=O)N[C@H]3CCCC[C@@H]3O)cc(Cc3ccc(-n4cccn4)cc3)c2s1` [Compound 237, N-[(1S,2S)-2-hydroxycyclohexyl]-2-methyl-7-[(4-pyrazol-1-ylphenyl)methyl]thieno[3,2-b]pyridine-5-carboxamide], the EC50 under setting [2] was 455 nM. In addition, the Emax (Table 2, human M1) is 85.2%. The matching figures for `O=C(NC1CCCCNC1=O)c1cc(Cc2ccc(-n3cccn3)cc2)c2sccc2n1` (centres unmarked) [Compound 79, N-(2-oxoazepan-3-yl)-7-[(4-pyrazol-1-ylphenyl)methyl]thieno[3,2-b]pyridine-5-carboxamide]: 397 nM and 70.5%.

Take `Cc1nn(C)c(C)c1-c1ccc(Cc2cc(C(=O)N[C@@H]3CC[C@H]3O)nc3ccsc23)cc1` [Compound 240, N-[(1R,2R)-2-hydroxycyclobutyl]-7-[[4-(1,3,5-trimethylpyrazol-4-yl)phenyl]methyl]thieno[3,2-b]pyridine-5-carboxamide]: under setting [2], the EC50 is greater than 10000 nM. Moreover, under “Table 2, human M1”, the Emax was found to be 19.9%. Take `CO[C@@H]1CCCC[C@H]1NC(=O)c1cc(Cc2ccc(-n3cccn3)cc2)c2sccc2n1` [Compound 76, N-[(1R,2R)-2-methoxycyclohexyl]-7-[(4-pyrazol-1-ylphenyl)methyl]thieno[3,2-b]pyridine-5-carboxamide]: under setting [2], the EC50 turned out to be 739 nM. The Emax (Table 2, human M1) came to 67.6%. Take `Cn1cc(-c2ccc(Oc3cc(C(=O)N[C@H]4COCC[C@@H]4O)nc4ccsc34)c(F)c2)cn1` [Compound 8]: the EC50 under setting [1] came to 7790 nM. The same measure, in the same setting: for `Cn1cc(-c2ccc(Oc3cc(C(=O)NC4CCOCC4)nc4ccsc34)c(F)c2)cn1` [Compound 4, 7-[2-fluoro-4-(1-methylpyrazol-4-yl)phenoxy]-N-tetrahydropyran-4-yl-thieno[3,2-b]pyridine-5-carboxamide] the value was 4990 nM. Turning to `O=C(NCC1CCCCO1)c1cc(Cc2ccc(-c3nccs3)cc2)c2sccc2n1` (centres unmarked) [Compound 375, N-(tetrahydropyran-2-ylmethyl)-7-[(4-thiazol-2-ylphenyl)methyl]thieno[3,2-b]pyridine-5-carboxamide], the 50% effective concentration (EC50) under setting [2] was greater than 10000 nM. Also, the Emax (Table 2, human M1) amounted to 77.4%. For `CC1CC(NC(=O)c2cc(Cc3ccc(-c4ccn(C)n4)cc3)c3sccc3n2)CC(C)O1` (centres unmarked) [Compound 326, N-(2,6-dimethyltetrahydropyran-4-yl)-7-[[4-(1-methylpyrazol-3-yl)phenyl]methyl]thieno[3,2-b]pyridine-5-carboxamide] the same measures were 2840 nM and 83.9%. As for `Cn1cc(-c2ccc(Cc3cc(C(=O)N[C@H]4CCC[C@@H]4O)nc4ccsc34)cn2)cn1` [Compound 223, N-[(1S,2S)-2-hydroxycyclopentyl]-7-[[6-(1-methylpyrazol-4-yl)-3-pyridyl]methyl]thieno[3,2-b]pyridine-5-carboxamide], under setting [2], the EC50 amounted to 29.4 nM. Moreover, the Emax (Table 2, human M1) came out at 79.9%.

As to `O=C(N[C@H]1COCC[C@@H]1O)c1cc(Cc2ccc(-c3cscn3)cc2)c2sccc2n1` [Compound 216], the EC50 under setting [2] amounted to 22 nM. The Emax (Table 2, human M1) came to 81.2%. `Cn1cc(-c2ccc(Cc3cc(C(=O)NCC4CCCCO4)nc4ccsc34)cn2)cn1` (centres unmarked) [Compound 340, 7-[[6-(1-methylpyrazol-4-yl)-3-pyridyl]methyl]-N-(tetrahydropyran-2-ylmethyl)thieno[3,2-b]pyridine-5-carboxamide]: the EC50 under setting [2] was 225 nM. Moreover, the Emax (Table 2, human M1) was 88.3%. Regarding `Cn1ccc2nc(C(=O)N[C@H]3CCCCC[C@@H]3O)cc(Cc3ccc(-c4cscn4)cc3)c21` [Compound 456, N-[(1S,2S)-2-hydroxycycloheptyl]-1-methyl-7-[(4-thiazol-4-ylphenyl)methyl]pyrrolo[3,2-b]pyridine-5-carboxamide], the EC50 under setting [2] is 129 nM. For the same molecule, where the note is “Table 2, human M1”, the Emax was determined as 67.9%. In the case of `Cc1nc(-c2ccc(Cc3cc(C(=O)N[C@H]4CC[C@@H]4O)nc4ccsc34)cc2)co1` [Compound 146, N-[(1S,2S)-2-hydroxycyclobutyl]-7-[[4-(2-methyloxazol-4-yl)phenyl]methyl]thieno[3,2-b]pyridine-5-carboxamide], under setting [2], the EC50 came out at 336 nM. Where the note is “Table 2, human M1”, the Emax amounted to 90.7%. For `Cc1ccc(Cc2cc(C(=O)N[C@H]3CCOC3)nc3ccsc23)cn1` [Compound 263, 7-[(6-methyl-3-pyridyl)methyl]-N-[(35)-tetrahydrofuran-3-yl]thieno[3,2-b]pyridine-5-carboxamide], the EC50 under setting [2] was greater than 10000 nM. Moreover, for the setting “Table 2, human M1”, the Emax worked out at 29.3%.

For the molecule `Cn1ccc(-c2ccc(Cc3cc(C(=O)NC[C@H]4CCCO4)nc4ccsc34)cn2)n1` [Compound 413, 7-[[6-(1-methylpyrazol-3-yl)-3-pyridyl]methyl]-N-[[(2R)-tetrahydrofuran-2-yl]methyl]thieno[3,2-b]pyridine-5-carboxamide], under setting [2], the EC50 was found to be 191 nM. For the same molecule, the Emax (Table 2, human M1) is 72.5%. For `O=C(N[C@@H]1CCOC[C@H]1O)c1cc(Cc2ccc(C(F)(F)F)nc2)c2sccc2n1` [Compound 91, N-[(3S,4R)-3-hydroxytetrahydropyran-4-yl]-7-[[6-(trifluoromethyl)-3-pyridyl]methyl]thieno[3,2-b]pyridine-5-carboxamide] the same measures were 73.8 nM and 87.9%. Regarding `Cc1ccc(Oc2cc(C(=O)N[C@@H]3CC[C@H]3O)nc3ccsc23)cn1` [Compound 16], the EC50 under setting [1] was greater than 10000 nM. Regarding `Cn1ccc2nc(C(=O)NC3CC(F)(F)C3)cc(Cc3ccc(-c4nccs4)cc3)c21` [Compound 487, N-(3,3-difluorocyclobutyl)-1-methyl-7-[(4-thiazol-2-ylphenyl)methyl]pyrrolo[3,2-b]pyridine-5-carboxamide], the EC50 under setting [2] is 819 nM. Further, the maximal effect (Emax) (Table 2, human M1) is 25.5%. `Cc1ccc(Oc2cc(C(=O)NC3CCCCNC3=O)nc3ccsc23)cn1` (centres unmarked) [Compound 36, 7-[(6-methyl-3-pyridyl)oxy]-N-(2-oxoazepan-3-yl)thieno[3,2-b]pyridine-5-carboxamide]: the EC50 under setting [1] is greater than 10000 nM. As to `Cc1ccc(Cc2cc(C(=O)N[C@@H]3CCCC[C@H]3O)nc3c(C)csc23)cn1` [Compound 103, N-[(1R,2R)-2-hydroxycyclohexyl]-3-methyl-7-[(6-methyl-3-pyridyl)methyl]thieno[3,2-b]pyridine-5-carboxamide], under setting [2], the EC50 is 233 nM. In addition, the Emax (Table 2, human M1) was 89.3%.

Regarding `Cc1csc2c(Cc3ccc(-c4ccn(C)n4)cc3)cc(C(=O)NC3COC3)nc12` [Compound 307, 3-methyl-7-[[4-(1-methylpyrazol-3-yl)phenyl]methyl]-N-(oxetan-3-yl)thieno[3,2-b]pyridine-5-carboxamide], the EC50 under setting [2] was found to be 3440 nM. Besides, the Emax (Table 2, human M1) is 67.2%. For `Cc1ncc(Cc2cc(C(=O)N[C@@H]3CCCC[C@H]3O)nc3ccsc23)s1` [Compound 136, N-[(1R,2R)-2-hydroxycyclohexyl]-7-[(2-methylthiazol-5-yl)methyl]thieno[3,2-b]pyridine-5-carboxamide] the same measures were 359 nM and 81%. For `O=C(NCC1CCOC1)c1cc(Cc2ccc(-n3cccn3)cc2)c2sccc2n1` (centres unmarked) [Compound 285, 7-[(4-pyrazol-1-ylphenyl)methyl]-N-(tetrahydrofuran-3-ylmethyl)thieno[3,2-b]pyridine-5-carboxamide] the same measures were 95.3 nM and 64.3%. As for `O=C(c1cc(Cc2ccc(-n3cccn3)cc2)c2sccc2n1)N1[C@@H]2CC[C@H]1CC(O)C2` (stereo partly drawn) [Compound 80, [(1S,5R)-3-hydroxy-8-azabicyclop[3.2.1]octan-8-yl]-[7-[(4-pyrazol-1-ylphenyl)methyl]thieno[3,2-b]pyridin-5-yl]methanone], the Emax was 65.9%. Also, under setting [2], the EC50 is greater than 10000 nM. Take `Cc1nc(-c2ccc(Cc3cc(C(=O)NC4CCN5CCCC45)nc4ccsc34)cc2)cs1` (centres unmarked) [Compound 197, N-(hexahydro-1H-pyrrolizin-1-yl)-7-[[4-(2-methylthiazol-4-yl)phenyl]methyl]thieno[3,2-b]pyridine-5-carboxamide]: the EC50 under setting [2] amounted to 1380 nM. Further, the Emax (Table 2, human M1) was 80.8%. For `Cc1nc(-c2ccc(Cc3cc(C(=O)N[C@@H]4CCC[C@H]4O)nc4ccsc34)cc2)co1` [Compound 159, N-[(1R,2R)-2-hydroxycyclopentyl]-7-[[4-(2-methyloxazol-4-yl)phenyl]methyl]thieno[3,2-b]pyridine-5-carboxamide] the same measures were 141 nM and 80.5%.

On to `Cc1csc2c(Cc3ccc(-n4cccn4)cc3)cc(C(=O)N[C@@H]3CCCCC[C@H]3O)nc12` [Compound 120, N-[(1R,2R)-2-hydroxycycloheptyl]-3-methyl-7-[(4-pyrazol-1-ylphenyl)methyl]thieno[3,2-b]pyridine-5-carboxamide], for which, under setting [2], the EC50 was 1320 nM. The Emax (Table 2, human M1) was found to be 75.3%.

For `CC1(C)CC(NC(=O)c2cc(Cc3ccc(-c4nccs4)cc3)c3sccc3n2)CCO1` (centres unmarked) [Compound 337], the EC50 under setting [2] came to 852 nM. Also, the Emax (Table 2, human M1) is 84.2%.

The record behind these values is patent US11111251B2, “Positive allosteric modulators of the muscarinic acetylcholine receptor M1” (Vanderbilt University, priority 2016, dated 2021).
